Molecules are shown by their SMILES.

Melanocortin receptor 4, sequence (P32245 whole entry): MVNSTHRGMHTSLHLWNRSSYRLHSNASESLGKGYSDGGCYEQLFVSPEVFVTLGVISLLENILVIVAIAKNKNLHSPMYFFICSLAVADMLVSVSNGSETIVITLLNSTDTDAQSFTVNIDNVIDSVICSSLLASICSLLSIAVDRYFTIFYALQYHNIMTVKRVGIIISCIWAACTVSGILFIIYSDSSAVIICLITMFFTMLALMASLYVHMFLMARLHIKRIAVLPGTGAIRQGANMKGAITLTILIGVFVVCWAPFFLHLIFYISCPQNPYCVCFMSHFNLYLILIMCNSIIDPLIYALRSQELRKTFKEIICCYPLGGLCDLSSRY
Beta-1 adrenergic receptor, sequence (P08588 whole entry): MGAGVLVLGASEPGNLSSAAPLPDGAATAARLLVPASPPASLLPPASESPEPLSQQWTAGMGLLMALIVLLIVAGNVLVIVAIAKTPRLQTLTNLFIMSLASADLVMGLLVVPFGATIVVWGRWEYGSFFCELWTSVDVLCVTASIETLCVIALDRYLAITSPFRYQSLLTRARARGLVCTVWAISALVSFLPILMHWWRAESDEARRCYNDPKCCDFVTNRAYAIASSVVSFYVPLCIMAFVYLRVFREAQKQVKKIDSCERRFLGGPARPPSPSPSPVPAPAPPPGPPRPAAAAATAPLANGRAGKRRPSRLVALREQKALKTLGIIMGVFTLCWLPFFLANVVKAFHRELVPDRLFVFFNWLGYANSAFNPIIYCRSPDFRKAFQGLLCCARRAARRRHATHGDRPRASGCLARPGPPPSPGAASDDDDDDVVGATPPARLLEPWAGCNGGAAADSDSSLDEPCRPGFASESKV
Mu-type opioid receptor, sequence (P35372 whole entry): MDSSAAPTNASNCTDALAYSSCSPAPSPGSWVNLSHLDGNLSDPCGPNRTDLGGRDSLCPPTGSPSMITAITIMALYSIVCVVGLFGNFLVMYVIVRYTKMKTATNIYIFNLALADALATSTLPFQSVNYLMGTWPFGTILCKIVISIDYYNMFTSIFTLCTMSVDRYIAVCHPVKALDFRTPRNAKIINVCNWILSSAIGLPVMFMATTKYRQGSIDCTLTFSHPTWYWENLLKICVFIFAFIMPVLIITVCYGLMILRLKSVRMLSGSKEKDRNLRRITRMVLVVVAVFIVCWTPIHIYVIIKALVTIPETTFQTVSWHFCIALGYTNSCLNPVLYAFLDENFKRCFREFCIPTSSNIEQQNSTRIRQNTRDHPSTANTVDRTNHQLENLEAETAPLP
Kappa-type opioid receptor, sequence (P41145 whole entry): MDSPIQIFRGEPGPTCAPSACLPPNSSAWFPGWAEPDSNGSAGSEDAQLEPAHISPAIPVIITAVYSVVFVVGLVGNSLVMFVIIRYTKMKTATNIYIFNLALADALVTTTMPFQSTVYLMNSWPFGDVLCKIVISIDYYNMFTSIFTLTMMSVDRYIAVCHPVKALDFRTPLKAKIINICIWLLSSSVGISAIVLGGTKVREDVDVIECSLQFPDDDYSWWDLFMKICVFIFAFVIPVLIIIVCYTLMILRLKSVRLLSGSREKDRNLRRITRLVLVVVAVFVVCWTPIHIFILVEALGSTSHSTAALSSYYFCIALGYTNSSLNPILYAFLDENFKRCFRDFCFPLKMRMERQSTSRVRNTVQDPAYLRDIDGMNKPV

The first assay concerns the target Beta-1 adrenergic receptor (Homo sapiens, UniProt P08588). Description: DRUGMATRIX: Adrenergic beta1 radioligand binding (ligand: [125I] Cyanopindolol). The note with it: Not Active = under 50% inhibition at 10 µM; read-out: IC50. Format: cell membranes, CHO-K1, Membrane.
On to `Clc1ccccc1C(c1ccccc1)(c1ccccc1)n1ccnc1` [CLOTRIMAZOLE], for which the 50% inhibitory concentration (IC50) was found to be 11.3 µM.

Still in this assay, the particulars now being: Not Active = under 50% inhibition at 10 µM; read-out: Ki.
Turning to `Clc1ccccc1C(c1ccccc1)(c1ccccc1)n1ccnc1` [CLOTRIMAZOLE], the Ki is 6.51 µM.

The assay is the same for the next values; noted with them: cho-k1; Not Active = under 50% inhibition at 10 µM.
For `CSc1ccc2c(c1)N(CCC1CCCCN1C)c1ccccc1S2` (configuration not stated) [THIORIDAZINE], the 50% inhibitory concentration (IC50) result is recorded as “Not Active”.

As for `CN1CCN2c3ccccc3Cc3ccccc3C2C1` (configuration not stated) [MIANSERIN], the IC50 result is “Not Active”.

Regarding `CC(C)(O)c1ccccc1CC[C@@H](SCC1(CC(=O)O)CC1)c1cccc(/C=C/c2ccc3ccc(Cl)cc3n2)c1` [MONTELUKAST], the IC50 result was “Not Active”.

Another assay has as its target T1, 5-hydroxytryptamine receptor 2C (Homo sapiens, UniProt P28335).
T1 sequence (P28335 whole entry): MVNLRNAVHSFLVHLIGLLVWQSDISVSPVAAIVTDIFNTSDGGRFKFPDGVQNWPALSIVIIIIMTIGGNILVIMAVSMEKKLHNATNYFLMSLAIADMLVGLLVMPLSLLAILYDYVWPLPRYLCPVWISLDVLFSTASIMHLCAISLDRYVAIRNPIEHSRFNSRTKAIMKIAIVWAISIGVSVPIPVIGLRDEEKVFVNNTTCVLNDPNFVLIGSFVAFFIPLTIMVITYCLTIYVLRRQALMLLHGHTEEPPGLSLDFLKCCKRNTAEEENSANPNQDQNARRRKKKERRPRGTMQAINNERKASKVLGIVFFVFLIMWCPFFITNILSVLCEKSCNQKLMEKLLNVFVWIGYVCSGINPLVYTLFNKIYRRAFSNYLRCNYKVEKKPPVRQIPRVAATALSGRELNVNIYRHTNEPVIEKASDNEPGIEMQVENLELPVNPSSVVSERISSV
Description: DRUGMATRIX: Serotonin (5-Hydroxytryptamine) 5-HT2C radioligand binding (ligand: [3H] Mesulergine). The note with it: Not Active = under 50% inhibition at 10 µM; read-out: IC50. Type of assay: cell membranes, CHO-K1, Membrane.
On to `Clc1ccccc1C(c1ccccc1)(c1ccccc1)n1ccnc1` [CLOTRIMAZOLE], for which the IC50 came to 14.5 µM.

Still in this assay, the particulars now being: Not Active = under 50% inhibition at 10 µM; read-out: Ki.
As for `Clc1ccccc1C(c1ccccc1)(c1ccccc1)n1ccnc1` [CLOTRIMAZOLE], the Ki turned out to be 7.58 µM.

The assay is the same for the next values; noted with them: cho-k1; Not Active = under 50% inhibition at 10 µM.
Regarding `CC(C)(O)c1ccccc1CC[C@@H](SCC1(CC(=O)O)CC1)c1cccc(/C=C/c2ccc3ccc(Cl)cc3n2)c1` [MONTELUKAST], the IC50 result is “Not Active”.

The target of a further assay is 5-hydroxytryptamine receptor 6 (Homo sapiens, UniProt P50406). Type of assay: cell membranes, HeLa, Membrane. Conditions: hela. Also: in other assays of this panel Not Active means under 50% inhibition at 10 µM.
5-hydroxytryptamine receptor 6, sequence (P50406 whole entry): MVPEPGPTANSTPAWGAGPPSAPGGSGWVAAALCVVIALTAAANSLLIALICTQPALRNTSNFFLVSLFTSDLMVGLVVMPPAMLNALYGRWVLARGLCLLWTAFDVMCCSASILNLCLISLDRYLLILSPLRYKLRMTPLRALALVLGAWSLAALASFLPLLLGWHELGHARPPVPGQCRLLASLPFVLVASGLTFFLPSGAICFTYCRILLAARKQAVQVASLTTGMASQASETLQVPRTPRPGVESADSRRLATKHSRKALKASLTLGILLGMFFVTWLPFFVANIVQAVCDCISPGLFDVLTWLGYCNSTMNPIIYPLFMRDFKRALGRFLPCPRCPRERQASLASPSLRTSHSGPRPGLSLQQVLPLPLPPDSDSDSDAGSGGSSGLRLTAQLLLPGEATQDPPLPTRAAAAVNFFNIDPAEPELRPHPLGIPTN
For the molecule `CC(C)(O)c1ccccc1CC[C@@H](SCC1(CC(=O)O)CC1)c1cccc(/C=C/c2ccc3ccc(Cl)cc3n2)c1` [MONTELUKAST], the IC50 entry is recorded as “Not Active”.

Still in this assay, the particulars now being: read-out: IC50.
In the case of `CSc1ccc2c(c1)N(CCC1CCCCN1C)c1ccccc1S2` (configuration not stated) [THIORIDAZINE], the half-maximal inhibitory concentration (IC50) amounted to 0.071 µM.

For `Clc1ccccc1C(c1ccccc1)(c1ccccc1)n1ccnc1` [CLOTRIMAZOLE], the IC50 came out at 12.5 µM.

Staying with this assay, now noted: read-out: Ki.
In the case of `CSc1ccc2c(c1)N(CCC1CCCCN1C)c1ccccc1S2` (configuration not stated) [THIORIDAZINE], the inhibition constant Ki stood at 0.033 µM.

With `Clc1ccccc1C(c1ccccc1)(c1ccccc1)n1ccnc1` [CLOTRIMAZOLE], the Ki was 5.82 µM.

The target of another assay is Sigma non-opioid intracellular receptor 1 (Homo sapiens, UniProt Q99720). The assay can be described thus: DRUGMATRIX: Sigma1 radioligand binding (ligand: [3H] Haloperidol). The note with it: Not Active = under 50% inhibition at 10 µM; read-out: IC50. Format: cell membranes, Jurkat, Membrane.
Sigma non-opioid intracellular receptor 1, sequence (Q99720 whole entry): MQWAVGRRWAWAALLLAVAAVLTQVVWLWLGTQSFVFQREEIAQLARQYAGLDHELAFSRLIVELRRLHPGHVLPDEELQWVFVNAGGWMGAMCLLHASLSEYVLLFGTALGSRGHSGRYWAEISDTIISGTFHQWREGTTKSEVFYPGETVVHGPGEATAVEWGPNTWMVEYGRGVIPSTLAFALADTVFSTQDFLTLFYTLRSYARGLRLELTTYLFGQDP
On to `CSc1ccc2c(c1)N(CCC1CCCCN1C)c1ccccc1S2` (configuration not stated) [THIORIDAZINE], for which the IC50 worked out at 0.363 µM.

The same assay, now with this note: Not Active = under 50% inhibition at 10 µM; read-out: Ki.
Consider `CSc1ccc2c(c1)N(CCC1CCCCN1C)c1ccccc1S2` (configuration not stated) [THIORIDAZINE], for which the Ki is 0.153 µM.

The assay is the same for the next values; noted with them: jurkat; Not Active = under 50% inhibition at 10 µM.
On to `CN1CCN2c3ccccc3Cc3ccccc3C2C1` (configuration not stated) [MIANSERIN], for which the IC50 entry is recorded as “Not Active”.

As to `Clc1ccccc1C(c1ccccc1)(c1ccccc1)n1ccnc1` [CLOTRIMAZOLE], the IC50 entry is “Not Active”.

For the molecule `CC(C)(O)c1ccccc1CC[C@@H](SCC1(CC(=O)O)CC1)c1cccc(/C=C/c2ccc3ccc(Cl)cc3n2)c1` [MONTELUKAST], the IC50 entry is given as “Not Active”.

The next assay concerns the target T2, Endothelin-1 receptor (Homo sapiens, UniProt P25101). Also: in other assays of this panel Not Active means under 50% inhibition at 10 µM.
T2 sequence (P25101 whole entry): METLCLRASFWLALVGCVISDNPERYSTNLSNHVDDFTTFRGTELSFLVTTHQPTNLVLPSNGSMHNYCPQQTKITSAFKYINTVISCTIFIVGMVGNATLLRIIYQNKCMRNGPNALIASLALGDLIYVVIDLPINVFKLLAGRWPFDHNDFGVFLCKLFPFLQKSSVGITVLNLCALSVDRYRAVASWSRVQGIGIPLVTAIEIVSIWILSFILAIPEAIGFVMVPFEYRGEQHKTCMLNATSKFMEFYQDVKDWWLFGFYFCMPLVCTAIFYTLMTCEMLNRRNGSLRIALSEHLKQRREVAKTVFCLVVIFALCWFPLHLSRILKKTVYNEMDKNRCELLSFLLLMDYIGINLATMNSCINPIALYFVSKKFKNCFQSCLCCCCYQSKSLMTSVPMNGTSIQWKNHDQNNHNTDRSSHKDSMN
Type of assay: cell membranes, Membrane. Conditions: cho-k1.
With `CSc1ccc2c(c1)N(CCC1CCCCN1C)c1ccccc1S2` (configuration not stated) [THIORIDAZINE], the IC50 result is listed as “Not Active”.

In the case of `CN1CCN2c3ccccc3Cc3ccccc3C2C1` (configuration not stated) [MIANSERIN], the IC50 result is given as “Not Active”.

On to `Clc1ccccc1C(c1ccccc1)(c1ccccc1)n1ccnc1` [CLOTRIMAZOLE], for which the IC50 result was “Not Active”.

As for `CC(C)(O)c1ccccc1CC[C@@H](SCC1(CC(=O)O)CC1)c1cccc(/C=C/c2ccc3ccc(Cl)cc3n2)c1` [MONTELUKAST], the IC50 entry is “Not Active”.

Another assay addresses Melanocortin receptor 4 (Homo sapiens, UniProt P32245). Format: cell membranes, Membrane. Conditions: hek293.
Take `CSc1ccc2c(c1)N(CCC1CCCCN1C)c1ccccc1S2` (configuration not stated) [THIORIDAZINE]: the IC50 entry is reported as “Not Active”.

Consider `CN1CCN2c3ccccc3Cc3ccccc3C2C1` (configuration not stated) [MIANSERIN], for which the IC50 result is recorded as “Not Active”.

As for `Clc1ccccc1C(c1ccccc1)(c1ccccc1)n1ccnc1` [CLOTRIMAZOLE], the IC50 result was “Not Active”.

With `CC(C)(O)c1ccccc1CC[C@@H](SCC1(CC(=O)O)CC1)c1cccc(/C=C/c2ccc3ccc(Cl)cc3n2)c1` [MONTELUKAST], the IC50 entry is recorded as “Not Active”.

For another assay, the target named is T3, Neuropeptide Y receptor type 2 (Homo sapiens, UniProt P49146). Also: in other assays of this panel Not Active means under 50% inhibition at 10 µM.
T3 sequence (P49146 whole entry): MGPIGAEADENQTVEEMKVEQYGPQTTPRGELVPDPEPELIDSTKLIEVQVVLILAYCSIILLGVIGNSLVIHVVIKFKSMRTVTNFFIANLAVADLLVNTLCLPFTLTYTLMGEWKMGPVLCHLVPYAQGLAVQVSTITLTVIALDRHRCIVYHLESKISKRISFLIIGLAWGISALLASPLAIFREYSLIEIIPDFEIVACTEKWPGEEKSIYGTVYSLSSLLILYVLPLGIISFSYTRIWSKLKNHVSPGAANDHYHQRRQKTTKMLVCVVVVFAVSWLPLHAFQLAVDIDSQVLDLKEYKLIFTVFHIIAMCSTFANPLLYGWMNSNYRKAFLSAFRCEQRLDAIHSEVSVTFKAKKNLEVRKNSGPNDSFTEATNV
Format: cell membranes, Membrane. The note with it: kan-ts.
`CSc1ccc2c(c1)N(CCC1CCCCN1C)c1ccccc1S2` (configuration not stated) [THIORIDAZINE]: the IC50 entry was “Not Active”.

For the molecule `CN1CCN2c3ccccc3Cc3ccccc3C2C1` (configuration not stated) [MIANSERIN], the half-maximal inhibitory concentration (IC50) entry is “Not Active”.

Consider `Clc1ccccc1C(c1ccccc1)(c1ccccc1)n1ccnc1` [CLOTRIMAZOLE], for which the half-inhibitory concentration (IC50) entry is “Not Active”.

On to `CC(C)(O)c1ccccc1CC[C@@H](SCC1(CC(=O)O)CC1)c1cccc(/C=C/c2ccc3ccc(Cl)cc3n2)c1` [MONTELUKAST], for which the IC50 entry is given as “Not Active”.

The next assay concerns the target Kappa-type opioid receptor (Homo sapiens, UniProt P41145). Description: DRUGMATRIX: Opiate kappa (OP2, KOP) radioligand binding (ligand: [3H] Diprenorphine). Type of assay: cell membranes, HEK293, Membrane. Conditions: Not Active = under 50% inhibition at 10 µM.
Molecule `Clc1ccccc1C(c1ccccc1)(c1ccccc1)n1ccnc1` [CLOTRIMAZOLE] returned a Ki of 2.52 µM.

The assay is the same for the next values; noted with them: Not Active = under 50% inhibition at 10 µM; read-out: IC50.
Take `Clc1ccccc1C(c1ccccc1)(c1ccccc1)n1ccnc1` [CLOTRIMAZOLE]: the IC50 amounted to 6.3 µM.

The same assay, now with this note: hek293; Not Active = under 50% inhibition at 10 µM.
As for `CN1CCN2c3ccccc3Cc3ccccc3C2C1` (configuration not stated) [MIANSERIN], the concentration for half-maximal inhibition (IC50) entry is listed as “Not Active”.

Consider `CC(C)(O)c1ccccc1CC[C@@H](SCC1(CC(=O)O)CC1)c1cccc(/C=C/c2ccc3ccc(Cl)cc3n2)c1` [MONTELUKAST], for which the IC50 result was “Not Active”.

Another assay has as its target Mu-type opioid receptor (Homo sapiens, UniProt P35372). Description: DRUGMATRIX: Opiate mu (OP3, MOP) radioligand binding (ligand: [3H] Diprenorphine). Type of assay: cell membranes, CHO-K1, Membrane. The note with it: cho-k1; Not Active = under 50% inhibition at 10 µM.
As to `CSc1ccc2c(c1)N(CCC1CCCCN1C)c1ccccc1S2` (configuration not stated) [THIORIDAZINE], the 50% inhibitory concentration (IC50) entry was “Not Active”.

As to `CN1CCN2c3ccccc3Cc3ccccc3C2C1` (configuration not stated) [MIANSERIN], the half-maximal inhibitory concentration (IC50) result was “Not Active”.

As for `CC(C)(O)c1ccccc1CC[C@@H](SCC1(CC(=O)O)CC1)c1cccc(/C=C/c2ccc3ccc(Cl)cc3n2)c1` [MONTELUKAST], the IC50 result was “Not Active”.

For orientation: IC50 means the point on the concentration scale where inhibition reaches its midpoint. The term Ki denotes a measure of affinity in units of concentration, obtained from inhibition or displacement.
